Data reported in patent publication US4788193A, “1-aryloxy-3-(substituted alkylamino)-2-propanols, pharmaceutical compositions and use” (Merck & Co., Inc., priority 1987, dated 1988).

How the values were obtained:
Assay type in all cases: cell-based
β2 (trachea) = molecular target: T1, β2 (trachea) (Cavia porcellus, UniProt Q8K4Z4); experiment: inhibition of isoproterenol-induced relaxation in isolated guinea pig tracheal chains contracted with PGF2α (β2); conditions: read-out: pA2 values β2 (trachea) (converted)
T1 construct: isolated guinea pig tracheal chains; from tissue; host or cells: isolated guinea pig tracheal chains
T1 sequence (Q8K4Z4 whole entry): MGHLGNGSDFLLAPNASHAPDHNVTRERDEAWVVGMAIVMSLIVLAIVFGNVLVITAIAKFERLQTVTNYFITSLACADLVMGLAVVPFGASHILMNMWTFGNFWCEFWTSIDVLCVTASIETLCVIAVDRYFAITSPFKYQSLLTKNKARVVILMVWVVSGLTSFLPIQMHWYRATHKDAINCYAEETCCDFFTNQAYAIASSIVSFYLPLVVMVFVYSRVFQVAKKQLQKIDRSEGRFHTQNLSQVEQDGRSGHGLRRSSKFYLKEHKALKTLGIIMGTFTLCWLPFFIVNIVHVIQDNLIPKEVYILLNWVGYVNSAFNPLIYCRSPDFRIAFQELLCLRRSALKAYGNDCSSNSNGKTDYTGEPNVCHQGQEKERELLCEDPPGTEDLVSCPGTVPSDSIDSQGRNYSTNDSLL
Description: (§1) The in vitro β-adrenergic blocking properties of the novel compounds of this invention were evaluated in accordance with standard procedures. The interaction with the β1 -receptor was determined via inhibition of the positive chronotropic actions of isoproterenol in isolated guinea pig atrial preparations. β2 potency was determined by using isolated guinea pig tracheal chains contracted with PGF2@ and by measuring inhibition of isoproterenol-induced relaxation.

β1-receptor [1] = molecular target: T2, β1-receptor (Cavia porcellus, UniProt H0W3H1); experiment: inhibition of the positive chronotropic actions of isoproterenol in isolated guinea pig atrial preparations (β1); conditions: isolated guinea pig atria, isoproterenol chronotropic action; read-out: pA2 values β1 (atria) (converted)
T2 construct: isolated guinea pig atrial preparations; from tissue; host or cells: isolated guinea pig atria
T2 sequence (H0W3H1 1-470): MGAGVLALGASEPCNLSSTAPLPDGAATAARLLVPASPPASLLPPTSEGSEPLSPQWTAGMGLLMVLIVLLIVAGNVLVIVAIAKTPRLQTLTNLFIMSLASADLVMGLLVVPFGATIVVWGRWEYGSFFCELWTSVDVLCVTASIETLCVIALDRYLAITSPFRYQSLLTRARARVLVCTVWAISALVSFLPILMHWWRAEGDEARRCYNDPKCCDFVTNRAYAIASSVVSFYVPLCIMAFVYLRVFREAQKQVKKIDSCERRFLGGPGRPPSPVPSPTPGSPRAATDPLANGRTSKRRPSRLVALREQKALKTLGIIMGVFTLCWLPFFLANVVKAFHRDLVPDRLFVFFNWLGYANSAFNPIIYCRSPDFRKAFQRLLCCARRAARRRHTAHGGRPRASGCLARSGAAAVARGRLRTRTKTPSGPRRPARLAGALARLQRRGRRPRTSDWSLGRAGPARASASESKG
Description: as §1

β1-receptor [2] = experiment: as above; conditions: β1 (atria) versus β2 (trachea), from pA2 values
Description: as §1

| Compound | Kb (β2 (trachea)) [nM] | Kb (β1-receptor [1]) [nM] | Cardioselectivity ratio (β1-receptor [2]) |
| --- | --- | --- | --- |
| N#Cc1ccccc1OCC(O)CNCCc1cccnc1 (centres unmarked) | 138 | 23.4 | 5.9 |
| N#Cc1ccccc1OCC(O)CNCCc1ccccn1 (centres unmarked) | 34700 | 34.7 | 1000 |
| N#Cc1ccccc1OCC(O)CNCCc1ccncc1 (centres unmarked) | 302 | 74.1 | 4.1 |
| N#Cc1ccccc1OCC(O)CNCCN1CCNCC1 (centres unmarked) | 64.6 | 25.7 | 2.5 |
| N#Cc1ccccc1OCC(O)CNCCN1CCOCC1 (centres unmarked) | 89.1 | 15.5 | 5.8 |
| CN(C)CCNCC(O)COc1ccccc1C#N (centres unmarked) [N(CH3)2, 1-(2-cyanophenoxy)-3-[2-(dimethylamino)ethyl]-amino-2-propanol] | 1120 | 43.7 | – |
